{
  "source": "paper PMC8022858",
  "about": "“Discovery of bone morphogenetic protein 7-derived peptide sequences that attenuate the human osteoarthritic chondrocyte phenotype” (Molecular Therapy. Methods & Clinical Development, 2021)",
  "system": "OA-HACs",
  "experiment": "sGAG content of OA-HAC cultures (DMB assay)",
  "type": "cell-based, human",
  "conditions": "three individual OA-HAC donors, 100 nM peptide, 24 h, normalized to total protein (Figure 2D)",
  "protocol": "Figure 2 Bioactivity of BMP7-derived peptides p[63−82] and p[113−132] on OA-HACs Complete peptide library screening quantitative real-time PCR dataset for peptides p[63−82] and p[113−132] is presented. (A) SOX9, COL2A1, and NKX3-2 mRNA expression in the 18 OA-HAC pool exposed to 1,000, 100, 10, or 1 nM of peptide p[63−82] and p[113−132] is shown and presented relative to control (black bars) and alongside full-length BMP7 (white bars). (B) Similar to (A) but for chondrocyte hypertrophy-associated genes RUNX2, COL10A1, and ALPL. (C) Similar to (A) but for cartilage extracellular matrix remodeling-associated genes MMP13 and ADAMTS5 and inflammation-related genes COX-2 and IL-6. […] (G) In the same OA-HAC pool of 18 OA-HAC donors from the peptide library screening, sequence dependency of peptides p[63−82] and p[113−132] was determined by exposing the OA-HAC pool to scrambled versions of peptides p[63−82] and p[113−132] […] Error bars represent mean ± SEM, and statistical significance for peptide conditions or BMP7 versus control condition as determined by unpaired two-tailed Student’s t test is represented as ∗p < 0.05, ∗∗p < 0.01, and ∗∗∗p < 0.001.\nThe sGAG content was measured using a modified dimethyl methylene blue (DMB) assay.[58] The absorbance of samples was read at 540 and 595 nm using a spectrophotometer (Multiskan FC; Thermo Fisher Scientific). […]",
  "data": [
    {"substance": "H-AAYYSEGESAFPLNSYMNAT-OH [p[63−82]]", "values": [
      {"measurement": "sulfated glycosaminoglycan (sGAG) content", "result": "increased"}
    ]}
  ]
}
